In patent US7678789B2, “[1,2,4]-dithiazoli(di)ne derivatives, inducers of gluthathione-S-transferase and NADPH quinone oxido-reductase, for prophylaxis and treatment of adverse conditions associated with cytotoxicity in general and apoptosis in particular” (Solvay Pharmaceuticals B.V., priority 2005, dated 2010):

Experiments:
[1] = test system: NAD(P)H: oxidoreductase (NQO, EC 1.6.99.2); assay: Spectrophotometric determination of EC 1.6.99.2 (NQO) induction in PC-12 cells; assay type: cell-based; conditions: Rat PC-12 cells, 24 hours incubation; negative logarithm of molar concentration causing same half maximal induction as reference compound D3T; menadione/MTT
Protocol: Spectrophotometric Determination of EC 1.6.99.2 (NQO) Induction
Rat PC-12 cells are incubated for 24 hours with a test compound. NAD(P)H: oxidoreductase (NQO, EC 1.6.99.2) activity is measured using menadione as substrate and MTT as readout compound. The formation of formazan from MTT is measured spectrophotometrically at 540 nm. The percentage stimulation (PS) relative to the maximal effect of the reference compound D3T is calculated. The maximal percentage stimulation with the concentration which induced the maximal percentage as condition and the pEA50 value (the negative logarithm of the molar concentration of the compound which caused the same half maximal induction of the enzyme activity as the reference compound D3T) are recorded (see Murphy et al., “Enhanced NAD(P)H:Quinone reductase activity defenses in neuronal cells prevents free radical-mediated damage”, J. Neurochem., 71 69-77, 1998 and Prochaska et al., Analytical Biochemistiy, 169, 328-336 1988).

[2] = test system: gluthathione-S-transferase (GST, EC 2.5.1.18); assay: Spectrophotometric determination of EC 2.5.1.18 (GST) induction in PC-12 cells; assay type: cell-based; conditions: Rat PC-12 cells, 24 hours incubation; negative logarithm of molar concentration causing 50% induction of enzyme activity; CDNB and GSH substrates
Protocol: Spectrophotometric Determination of EC 2.5.1.18 (GST) Induction
Rat PC-12 cells are incubated for 24 hours with a test compound. GST activity is measured using 1-chloro-2,4-dinitrobenzene (CDNB) and gluthathine (GSH) as substrates. The enzyme catalyses the reaction converting these substrates into S-(2,4-dinitrophenyl)glutathione, which product is measured spectrophotometrically at 340 nm. The effect of the test compound is expressed as pEC50: the negative logarithm of the molar concentration of the compound which causes 50% induction of the enzyme activity. Also the maximal percentage enzyme induction is determined. (see Drukarch et al. “Anethole dithiolethione prevents oxidative damage in gluthathione-depleted astrocytes”, Eur. J. Pharmacol. 329, 259-262, 1997).

Structure (SMILES) | NQO pEA50 [1] | melting point [°C] | GST pEC50 [2]
CCCCc1ccc(N=c2nc(N(C)C)ss2)cc1 [Compound A2] | 5.2 | 81 to 82.5 | 5.2
CN(C)c1nc(=Nc2ccc([N+](=O)[O-])cc2)ss1 [Compound A10] | 5.8 | 170 to 171.5 | 5.4
Cc1cccc(N=c2nc(N3CCOCC3)ss2)c1 [Compound B5] | 5.7 | 217 to 226 | 5.3
CN=c1ssc(=Nc2ccccc2)n1C [Compound C2] | 6.2 | 80 to 82 | 5.8
CN=c1ssc(=Nc2ccccc2C)n1C [Compound C3] | 5.7 | 100 to 101.4 | 5.8
CN=c1ssc(=Nc2cccc(F)c2)n1C [Compound C11] | 5.3 | 76.5 to 77.6 | 5.6
